# Measured values published in PMC6959841, “Kinetic Optimization of Lysine-Targeting Covalent Inhibitors of HSP72” (Journal of Medicinal Chemistry, 2019).
# Entries after “also recorded” stand apart in the source; their conditions may differ.
# Assays:
# HSP72 = conditions: read-out: KM for ATP; cited from earlier work
# HSP72-NBD [1] = target: T1, HSP72-NBD (Homo sapiens, UniProt P0DMV8); experiment: HSP72-NBD nucleotide-derived FP-assay (probe displacement, App. Ki, time-dependent); type: binding
# T1 sequence (P0DMV8 2-386 limits assumed): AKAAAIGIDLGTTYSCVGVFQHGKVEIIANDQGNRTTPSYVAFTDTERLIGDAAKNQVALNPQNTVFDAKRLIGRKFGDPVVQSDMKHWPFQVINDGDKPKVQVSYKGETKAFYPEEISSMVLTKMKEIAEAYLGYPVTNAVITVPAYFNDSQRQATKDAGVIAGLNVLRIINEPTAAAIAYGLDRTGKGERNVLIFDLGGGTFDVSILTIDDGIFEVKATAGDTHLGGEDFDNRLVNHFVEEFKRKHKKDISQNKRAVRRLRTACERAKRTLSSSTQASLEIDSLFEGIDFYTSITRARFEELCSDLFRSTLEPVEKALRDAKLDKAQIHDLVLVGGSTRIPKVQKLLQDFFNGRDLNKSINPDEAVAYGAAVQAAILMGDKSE
# HSP72-NBD [2] = target: T1, HSP72-NBD; experiment: Covalent (kinetic) FP-assay; type: binding
# HSP72-NBD [3] = target: T1, HSP72-NBD; conditions: even at high concentrations; cited from earlier work
# HSP72-NBD [4] = target: T1, HSP72-NBD; experiment: Intact-protein mass spectrometry of covalent adduct formation; type: binding; conditions: 20 μM compound, 2.0 μM HSP72-NBD, 21 °C
smiles,measurement,setting,value
Nc1ncnc2c1ncn2[C@@H]1O[C@H](COP(=O)(O)OP(=O)(O)OP(=O)(O)O)[C@@H](O)[C@H]1O [ATP],Km,HSP72,~1 µM
"C=CC(=O)OCCC[C@H]1O[C@@H](n2c(NCc3ccc(Cl)cc3)nc3c(N)ncnc32)[C@H](O)[C@@H]1O [Compound 2, 3-((2R,3S,4R,5R)-5-(6-amino-8-((4-chlorobenzyl)amino)-9H-purin-9-yl)-3,4-dihydroxytetrahydrofuran-2-yl)propyl acrylate]",Ki,HSP72-NBD [1]; Time 19 h,7.2 µM
same,Ki,HSP72-NBD [1]; Time 46 h,3.7 µM
same,Ki,HSP72-NBD [1]; Time […] (printed 0.08 3),17 µM
same,kinact,"HSP72-NBD [2]; from kinact/KI and initial Ki, assuming KI = Ki",1.6e-05 s⁻¹
same,t1/2^inf,HSP72-NBD [2]; ln 2/kinact,12 h
same,exposure required for complete formation of the covalent complex by intact-protein MS,HSP72-NBD [3],> 24 h
"Nc1ncnc2c1nc(NCc1ccc(Cl)cc1)n2[C@@H]1O[C@H](COCc2ccc(C(=O)Oc3ccc(F)cc3)cc2)[C@@H](O)[C@H]1O [Compound 8, 4-fluorophenyl 4-((((2R,3S,4R,5R)-5-(6-amino-8-((4-chlorobenzyl)amino)-9H-purin-9-yl)-3,4-dihydroxytetrahydrofuran-2-yl)methoxy)methyl)benzoate]",covalent-bond formation by intact-protein MS,HSP72-NBD [4],no evidence of specific and selective covalent-bond formation
"CC1(C)O[C@@H]2[C@H](O1)[C@@H](COC(=O)c1ccc(S(=O)(=O)F)cc1)O[C@H]2n1c(NCc2ccc(Cl)cc2)nc2c(N)ncnc21 [Compound 13, ((3aR,4R,6R,6aR)-6-(6-amino-8-((4-chlorobenzyl)amino)-9H-purin-9-yl)-2,2-dimethyltetrahydrofuro[3,4-d][1,3]dioxol-4-yl)methyl 4-(fluorosulfonyl)benzoate]",reversible binding affinity,HSP72-NBD [1],no reversible binding affinity
same,time dependence of App. Ki / probe displacement curve,HSP72-NBD [1]; WT HSP72-NBD,no time-dependent displacement
same,covalent-bond formation by intact-protein MS,HSP72-NBD [4],no reaction; also recorded: no reactivity
"N#Cc1ccc(C(=O)OC[C@H]2O[C@@H](n3c(NCc4ccc(Cl)cc4)nc4c(N)ncnc43)[C@H](O)[C@@H]2O)cc1 [Compound 15, ((2R,3S,4R,5R)-5-(6-amino-8-((4-chlorobenzyl)amino)-9H-purin-9-yl)-3,4-dihydroxytetrahydrofuran-2-yl)methyl 4-cyanobenzoate]",fold weaker/less potent than tight-binding reversible MMP 9,HSP72-NBD [1],> 18 fold
"Nc1ncnc2c1ncn2[C@@H]1O[C@H](COC(=O)c2ccc(S(=O)(=O)F)cc2)[C@@H](O)[C@H]1O [Compound 16, ((2R,3S,4R,5R)-5-(6-amino-9H-purin-9-yl)-3,4-dihydroxytetrahydrofuran-2-yl)methyl 4-(fluorosulfonyl)benzoate]",fold weaker activity / decrease in covalent efficiency vs TCI 14,HSP72-NBD [2],70 fold
